4 molecules from ChEMBL document CHEMBL1121625, “Crystal structures of calcium channel antagonists: 2,6-dimethyl-3,5-dicarbomethoxy-4-[2-nitro-, 3-cyano-, 4-(dimethylamino)-, and 2,3,4,5,6-pentafluorophenyl]-1,4-dihydropyridine” (1980) can be followed below.

The species entered for the assay is Cavia porcellus. As to the kind of experiment: The compound was tested for inhibition of muscarinic responses in guinea pig ileal longitudinal smooth muscle. It is filed as functional, Muscle tissue.
In turn, `COC(=O)C1=C(C)N=C(C)/C(=C(\O)OC)C1c1c(F)c(F)c(F)c(F)c1F` (centres undefined) came in with an ID50 of 0.0009 µM.

As for `COC(=O)C1=C(C)NC(C)=C(C(=O)OC)C1c1ccccc1[N+](=O)[O-]` [NIFEDIPINE], the ID50 is 0.0051 µM.

`COC(=O)C1=C(C)NC(C)=C(C(=O)OC)C1c1ccc(N(C)C)cc1`: the ID50 came to 50 µM.

In turn, `COC(=O)C1=C(C)N=C(C)/C(=C(\O)OC)C1c1cccc(C#N)c1` (centres undefined) displayed an ID50 of 0.3 µM.
